From PMC12744750 (Plant Communications, 2025)
Entries after “also recorded” stand apart in the source; their conditions may differ.

Columns and labels:
pPLS::GUS = pPLS::GUS expression in root tips after hormone treatment; type: in vivo, Arabidopsis; settings: 10 μM 2,4-D, root tips
Description: Figure S15. The link between auxi n and et hyl ene si gnal l i ng ef f ect s on PLS transcription, and downstream ef f ect s on et hyl ene responses.
(A) Ant agoni sm between auxi n and et hyl ene on PLS expressi on.
Auxin posit ively regulates PLS gene transcription, whi l e ACC (ethylene pr ecur sor ) […]
Lef t upper panel: pPLS::GUS […]
expr ession in the Arabidopsis root tip under standard gr owt h conditions. Lef t lower panel: pPLS::PLS:GFP expr ession in the Arabidopsis root tip under standard gr owt h conditions.
Ri ght panel: pPLS::GUS expr ession in root tips treated wi t h 10 μM 2,4-D, showing ect opic […]
10 μM 2,4-D plus 10 μm ACC, showing the ant agonism of the inductive eff ect of 2,4-D on PLS::GUS expr ession. Images ar e representative of 10 independently gr own roots. […]

[1] = tested on: Arabidopsis pls mutant seedlings (primary root length); experiment: Hydroponic peptide feeding: rescue of short primary root of pls mutant; type: in vivo, Arabidopsis thaliana; settings: for rescue of root growth of pls seedlings: 50 nM peptide, n = 25 (Figure 2C)
Protocol: (A) Amino acid sequence of the PLS peptide from Arabidopsis thaliana with the Camelina sativa PLS sequence and the synthetic truncations N1, N2, C1, and C2 indicated by horizontal lines. Two cysteine residues are highlighted in bold. (B) Effect of the synthetic Arabidopsis PLS full-length peptide, A. thaliana PLS(FL), and the Camelina PLS peptide (C. sativa PLS) on Arabidopsis primary root length. Wild-type (C24; blue bars) and pls mutant seedlings (orange bars) were grown hydroponically in the presence (100 nM) or absence of peptide for 10 days. ∗∗∗P < 0.05, t-test between C24 and pls. Error bars show ±1 standard error of the mean, n = 20. (C) Effect of synthetic full-length and truncated peptides on primary root length of wild-type (blue bars) and pls mutant (orange bars) Arabidopsis. Seedlings were grown hydroponically in the presence of 50 nM peptide for 10 days. C1, C-terminal 14 amino acids; C2, C-terminal 24 amino acids; N1, N-terminal 22 amino acids; N2, N-terminal 9 amino acids; full-length PLS, 36 amino acids. Error bars show ±1 standard error of the mean, n = 25. ∗∗∗P < 0.05, t-test between C24 and pls.
proPLS::PLS:GFP comprises a 1.5-kb PLS promoter sequence ([Casson et al., 2002]) fused to the PLS open reading frame in pMDC107 (obtained from Prof. P.J. Hussey, Durham University) as a C-terminal GFP translational fusion. The PLS ORF with its 1.5-kb promoter was amplified from the TOPO 2.1 vector, which contained the PLS gene sequence with promoter ([Casson et al., 2002]); the primers used for cloning are listed in supplemental Table 9. pls mutant plants were transformed using the method of [Clough and Bent (1998)]. proPLS::GFP plants were generated using the 1.5-kb PLS promoter ([Casson et al., 2002]) fused to GFP in a wild-type background. p35S::GFP seedlings were obtained from Dr. Piers Hemsley, Durham University. Seedlings of Arabidopsis thaliana ecotype C24 or Col-0, pls mutants, and transgenic PLS overexpressers, all from lab stocks, were grown on solid sterile half-strength (2.2 g/l) Murashige and Skoog medium (Sigma-Aldrich) containing 10 g/l sucrose (half-strength [½] MS10 medium) solidified with 2.5 g/l Phytagel (Sigma-Aldrich) in 90-mm Petri dishes (Sarstedt, Leicester, UK) at 21°C under a 16-h photoperiod as described previously ([Casson et al., 2002]; [Chilley et al., 2006]). N. benthamiana plants (lab stocks) were grown in a controlled environment (21°C, 16-h photoperiod) for transient expression studies in leaf tissue. For hydroponic feeding studies, Arabidopsis seedlings were cultured in liquid ½ MS10 medium (1 ml/well) in sterile 24-well plates (Sarstedt), essentially as described in [Matsuzaki et al. (2010]). For hormone and peptide assays, one seedling was grown in each well at 21°C under a 16-h photoperiod. For peptide feeding experiments, purified freeze-dried peptide was dissolved in DMSO to create a 500-μM stock solution. The peptide stock solution was added to liquid ½ MS10 medium containing 0.1% DMSO to obtain a final peptide concentration of 50 or 100 nM (or 10, 25, 50, and 100 nM for dose-dependent assays). For copper treatments, 1 mM CuSO4 solution was filter sterilized and added to autoclaved liquid ½ MS10 medium to obtain final CuSO4 concentrations of 0, 5, 10, 15, 20, 25, 30, 35, 40, 45, and 50 μM. Seedlings were scanned to create a digital image, and root lengths of the seedlings were measured using ImageJ. Statistical analysis was performed using Real Statistics Resource Pack software (release 3.8, www.real-statistics.com) in Excel (Microsoft) using data from at least 10 independently grown seedlings for root growth analysis; specific numbers are defined for each experiment.

[2] = Anaerobic Cu(I) titration in competition with bicinchoninic acid (BCA); type: binding; settings: synthetic peptide; mutant 40 μM, BCA 93.3 μM, mean ± SD, n = 3 (supplemental Figure 10)
Protocol: Freeze-dried synthetic PLS peptide (Cambridge Research Biochemicals) was dissolved in DMSO. An aliquot was added to aqueous buffer (10 mM HEPES [pH 7], 20 mM NaCl, 80 mM KCl), and absorbance was recorded at 280 nm. PLS concentration was estimated from the absorbance and the ProtParam estimated extinction coefficient of 2980 M^−1 cm^−1. Concurrently, a sample was submitted for quantitative amino acid analysis (Abingdon Health Laboratory Services). From this analysis, a conversion factor of 2.27 was generated, which was applied to the concentrations determined by A280 nm.
A fusion of PLS to MBP was created using the NEBExpress MBP Fusion and Purification System. Two complementary oligonucleotide primers encoding PLS (optimized for expression in E. coli) were annealed and inserted into the pMal-c5x plasmid at the XmnI and SalI insertion sites. The three mutants MBP:PLS(C6S), MBP:PLS(C17S), and MBP:PLS(C6S/C17S) were created by site-directed mutagenesis (QuikChange II, Agilent). E. coli NEB Express containing the pMal plasmid with the correct MBP:PLS mutant was used to overexpress each protein. Harvested cells were resuspended in 20 mM Tris–HCl (pH 7.4), 200 mM NaCl, and 1 mM EDTA, then frozen at −20°C overnight. Cells were defrosted in cold H2O, sonicated, purified by ammonium sulfate precipitation (where MBP-PLS precipitates >60% saturation), separated on an MBP-Trap column (GE Healthcare), and eluted using buffer containing 10 mM maltose. MBP:PLS-containing fractions were pooled and concentrated using a centrifugal concentrator (Corning, Spin-X UF 30 kDa) and buffer exchanged by desalting column into a metal-free buffer of 20 mM HEPES (pH 7.0) and 50 mM NaCl in an anaerobic chamber (Belle Technology). Mutants containing thiols were quantified using Ellman’s assay, and MBP:PLS(C6S/C17S), which lacks all thiols, was quantified using the Bradford assay alone. Samples were also analyzed for metal content by ICP–MS to ensure >95% apo-protein.
All Cu(I) titration experiments were carried out in an anaerobic chamber (Belle Technology) using metal-free CHELEX-treated, degassed buffers. For titration experiments with Cu(I), aqueous CuSO4 stock was quantified in advance by ICP–MS and diluted to working concentrations. The reductant NH2OH was included at a final concentration of 1 mM to maintain Cu(I) in its reduced state. Proteins were diluted in buffer to the final concentration specified in each titration in air-tight quartz cuvettes (Helma), and after addition of probe to the concentration specified, titrated with CuSO4. After each addition, solutions were thoroughly mixed and absorbance spectra recorded using a Lambda 35 UV/Vis spectrophotometer (PerkinElmer). Titration isotherm data were fitted using simulated affinity curves with DynaFit ([Kuzmič, 2009]).

pls mutant = settings: cited from earlier work
Description: Transgenic complementation of the mutant by the PLS gene (AT4G39403), which encodes a 36-amino-acid peptide, suppresses the mutant phenotype ([ ... || The pls mutant is rescued by the supply of silver ions ([Casson et al., 2002]), and silver is likely delivered to the ethylene receptor via RAN1 ([Binder et al., 2010]); these findings argue against a mechanism in which PLS acts downstream of RAN1 to metalate ETR1 in the ER lumen. It is also unlikely that PLS removes Cu(I) from the receptor, as this would inactivate the receptor and lead to enhanced ethylene signaling in the presence of PLS, which is the opposite of what would be expected from the pls mutant phenotype. We therefore favor a model (Figure 6) in which PLS binds ETR1 as part of th ...

[3] = target: T1, full-length ETR1, recombinant, purified and fluorescently labeled (Arabidopsis, UniProt P49333 1-738, fluorescent label (dye and site not stated)); experiment: MST
T1 chain: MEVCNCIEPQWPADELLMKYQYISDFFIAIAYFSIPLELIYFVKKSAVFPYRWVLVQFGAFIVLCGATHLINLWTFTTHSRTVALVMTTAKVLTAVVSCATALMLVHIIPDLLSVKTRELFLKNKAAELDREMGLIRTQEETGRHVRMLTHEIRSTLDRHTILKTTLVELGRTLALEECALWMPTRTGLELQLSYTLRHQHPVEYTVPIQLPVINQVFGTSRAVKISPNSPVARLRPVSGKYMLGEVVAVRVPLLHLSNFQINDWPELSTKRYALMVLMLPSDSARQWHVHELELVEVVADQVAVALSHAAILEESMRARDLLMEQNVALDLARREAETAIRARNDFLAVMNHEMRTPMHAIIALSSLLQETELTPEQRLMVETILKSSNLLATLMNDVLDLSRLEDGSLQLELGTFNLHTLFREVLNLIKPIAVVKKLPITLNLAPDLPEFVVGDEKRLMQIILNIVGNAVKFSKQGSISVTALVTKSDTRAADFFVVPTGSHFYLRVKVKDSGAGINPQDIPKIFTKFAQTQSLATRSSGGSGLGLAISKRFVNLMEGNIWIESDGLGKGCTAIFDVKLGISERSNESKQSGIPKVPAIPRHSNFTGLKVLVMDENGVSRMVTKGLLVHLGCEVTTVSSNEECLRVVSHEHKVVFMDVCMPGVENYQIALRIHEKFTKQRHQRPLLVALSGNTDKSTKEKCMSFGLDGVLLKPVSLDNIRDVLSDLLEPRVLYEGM

O=C(O)COc1ccc(Cl)cc1Cl [2,4-D]
pPLS::GUS expression (pPLS::GUS): throughout the root

C1: C-terminal 14 amino acids of Arabidopsis PLS (YLLVAKLFKLFKIH; UniProt Q8LLV8 23-36, looked up, fragment)
rescue of root growth of pls seedlings ([1]; hydroponic, 10 days): unable to rescue the mutant

C2: C-terminal 24 amino acids of Arabidopsis PLS (SISPCYISISYLLVAKLFKLFKIH; UniProt Q8LLV8 13-36, looked up, fragment)
rescue of root growth of pls seedlings ([1]; hydroponic, 10 days): unable to rescue the mutant

N1: N-terminal 22 amino acids of Arabidopsis PLS (MKPRLCFNFRRRSISPCYISIS; UniProt Q8LLV8 1-22, looked up, fragment)
rescue of root growth of pls seedlings ([1]; hydroponic, 10 days): rescued root growth | difference in rescue effects of PLS(FL) and PLS(N1), t-test P ([1]; 50 nM, n = 25): > 0.1 | difference in rescue effects of PLS(FL) and PLS(N1) ([1]; 50 nM, n = 25, t-test): did not differ significantly | rescue of short primary root length of pls mutant ([1]; hydroponic, 10 days, 100 nM (Figure 2B) or 50 nM (Figure 2C)): able to rescue the short primary root length

N2: N-terminal 9 amino acids of Arabidopsis PLS (MKPRLCFNF; UniProt Q8LLV8 1-9, looked up, fragment)
rescue of root growth of pls seedlings ([1]; hydroponic, 10 days): unable to rescue the mutant

PLS(FL C6S, C17S): mutated Arabidopsis full-length peptide in which both cysteines were replaced with serines (MKPRLSFNFRRRSISPSYISISYLLVAKLFKLFKIH; full-length; UniProt Q8LLV8 1-36, looked up, variant C6S C17S)
rescue of pls mutant by double-Cys mutant peptide ([1]; 100 nM, hydroponic, 10 days (Figure 5A)): non-functional; also recorded: failing to rescue the short primary root phenotype of the pls mutant | withholding of Cu(I) from BCA [2]: does not

silver ions
rescue of pls mutant phenotype (pls mutant; pharmacological inhibition of ethylene signaling, ref Chilley et al., 2006): rescued | rescue of pls mutant (pls mutant; supply of silver ions, ref Casson et al., 2002): rescued

B1: synthetic full-length POLARIS (PLS) peptide, PLS(FL) (peptide)
peptide: MKPRLCFNFRRRSISPCYISISYLLVAKLFKLFKIH
Kd [3]: 1.9 µM
